In publication PMC11678245, “The Molecular Basis of the Intrinsic and Acquired Resistance to Azole Antifungals in Aspergillus fumigatus” (Journal of Fungi, 2024):
Numbered stars: 1 amine (or outer) side, 2 acyl side, 3 side chain; on linkers, the order of the positions; unused ones are H or OH. Bridge positions count the residues as written; N and C are the ends. Square brackets hold non-standard residues; d marks the D form. Peptide text beside a SMILES is read from it. * marks the point of attachment. hTyr(3S-OH,4S-OH,3'-OSO3H) = N[C@H](C(=O)O)[C@H](O)[C@@H](O)c1ccc(O)c(OS(=O)(=O)O)c1; Orn(4R-OH,5R-OH) = O=C([C@H](C[C@@H](O)[C@@H](O)N[*:3])N[*:1])[*:2]; Pro(3S-OH,4S-Me) = C[C@H]1CN[C@H](C(=O)O)[C@H]1O; X1 = CCCCCOc1ccc(-c2cc(-c3ccc(C(=O)*)cc3)no2)cc1; Gln(3R-OH) = NC(=O)C[C@@H](O)[C@H](N)C(=O)O; Hyp = O=C(O)[C@@H]1C[C@@H](O)CN1

How the values were obtained:
[1] = tested on: S. cerevisiae strain ARE Y121F (AfCyp51A-6×His Y121F, AfCprA2, AfErg6-FLAG); assay: MIC80 susceptibility, strain Y121F; assay type: cell-based, Saccharomyces cerevisiae; settings: Saccharomyces cerevisiae; Table 2; strain Y121F; SD pH 6.8, 48 h, 30 °C; ± SD; read-out: MIC80
Method: (§1) The susceptibilities of S. cerevisiae strains to antifungal drugs were determined as minimum growth inhibitory concentration (MIC) values in 200 μL SD pH 6.8 [24]. Serial 2-fold dilutions of 100 μL of azole or control drugs in SD pH 6.8 were prepared in a 96-well microtiter plate. A portion of a 2 mL SD pH 6.8 overnight culture of the test strain was inoculated into 3 mL fresh SD pH 6.8 and incubated for 4 to 6 h at 30 °C to generate logarithmic-phase cells. These cells were then diluted with fresh SD pH 6.8 to OD600nm = 0.01 (3 × 10^4 CFU), and 100 μL of this cell suspension was added to microtiter plate wells. Cell growth after 48 h incubation at 30 °C with shaking at 200 rpm was determined at 600 nm using a BioTek™ Synergy™ 2 multi-Mode microplate reader controlled using Gen5™ Data Analysis Software version 3.16.10 (BioTek Instruments, Winooski, VT, USA). MIC80 values (80% growth inhibition in the presence of the test drug compared with the untreated control) for each yeast construct were determined as technical triplicates repeated three times for three separate clones.

[2] = tested on: S. cerevisiae strain ARE I301T (AfCyp51A-6×His I301T, AfCprA2, AfErg6-FLAG); assay: MIC80 susceptibility, strain I301T; assay type: cell-based, Saccharomyces cerevisiae; settings: Saccharomyces cerevisiae, 48 h, pH 6.8, Table 2; strain I301T; SD pH 6.8, 48 h, 30 °C; ± SD; read-out: MIC80
Method: as §1

[3] = target: T1, AfCYP51B-6×His (Aspergillus fumigatus, UniProt E9QY26); assay: Type II binding of azole drugs (difference spectra)
T1 sequence (E9QY26 1-524): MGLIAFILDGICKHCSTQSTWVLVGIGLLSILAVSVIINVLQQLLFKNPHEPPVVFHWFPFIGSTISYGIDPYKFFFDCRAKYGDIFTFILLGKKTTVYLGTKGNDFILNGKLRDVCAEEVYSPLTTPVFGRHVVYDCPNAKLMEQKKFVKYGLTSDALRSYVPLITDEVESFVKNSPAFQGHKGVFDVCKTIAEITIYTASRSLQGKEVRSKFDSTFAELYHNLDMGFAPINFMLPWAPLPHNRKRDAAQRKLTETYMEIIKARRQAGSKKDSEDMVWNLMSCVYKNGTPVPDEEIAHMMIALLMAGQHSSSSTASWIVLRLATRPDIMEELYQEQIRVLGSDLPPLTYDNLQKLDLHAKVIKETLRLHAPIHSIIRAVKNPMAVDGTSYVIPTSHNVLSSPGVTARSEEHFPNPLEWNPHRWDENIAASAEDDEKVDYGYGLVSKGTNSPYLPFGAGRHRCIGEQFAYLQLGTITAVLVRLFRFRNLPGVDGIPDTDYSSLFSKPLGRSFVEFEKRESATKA
Method: The concentration of AfCYP51A and AfCYP51B, purified using Ni-NTA affinity chromatography and used for the spectrophotometric type I and type II binding assays, was calculated using an extinction co-efficient of λ417nm = 117 mM^−1 cm^−1 applied to the absolute absorption spectrum of the preparations. In addition, the amount of “active” cytochrome P450 enzyme was determined using the carbon monoxide (CO) binding spectra of these preparations.
Type II binding difference spectra were obtained using 1 μM of affinity-purified CYP51 enzymes. VCZ, PCZ, VT-1161, DCZ, and MCF working solutions were prepared in DMSO, while FLC was prepared in Milli-Q water. Azole drugs were added to the sample cuvette, and corresponding amounts of DMSO or Milli-Q water were added to the reference cuvette. Drug binding curves were plotted using the difference spectrum peak and trough detected in the range of 410–425 nm. Dissociation constants (Kd) were determined by nonlinear regression (Levenberg–Marquardt algorithm) of the difference in absorbance between the peak and trough against the azole concentration using a rearrangement of the Morrison equation or the Hill equation [7]. GraphPad Prism 9.2.0 software was used to identify the best fit for the data.

[4] = tested on: S. cerevisiae strain BRE (AfCyp51B-6×His, AfCprA2, AfErg6-FLAG); assay: MIC80 susceptibility, strain BRE; assay type: cell-based, Saccharomyces cerevisiae; settings: Saccharomyces cerevisiae; Table 2; strain BRE; SD pH 6.8, 48 h, 30 °C; ± SD; read-out: MIC80
Method: as §1

[5] = tested on: S. cerevisiae strain ADΔΔ (native ScCYP51); assay: MIC80 susceptibility, host strain ADΔΔ; assay type: cell-based; settings: Saccharomyces cerevisiae, Table 2, SD pH 6.8, 48 h, 30 °C
Method: as §1

[6] = tested on: S. cerevisiae strain ARE T289A (AfCyp51A-6×His T289A, AfCprA2, AfErg6-FLAG); assay: MIC80 susceptibility, strain T289A; assay type: cell-based, Saccharomyces cerevisiae; settings: for MIC80: Saccharomyces cerevisiae, 48 h, pH 6.8, Table 2, strain T289A, SD pH 6.8, 48 h, 30 °C, ± SD, read-out: MIC80
Method: as §1

[7] = tested on: S. cerevisiae strain B (AfCyp51B-6×His, native ScCyp51 retained); assay: MIC80 susceptibility, strain B; assay type: cell-based; settings: Saccharomyces cerevisiae, Table 2, SD pH 6.8, 48 h, 30 °C
Method: as §1

[8] = tested on: S. cerevisiae strain A (AfCyp51A-6×His, native ScCyp51 retained); assay: MIC80 susceptibility, strain A; assay type: cell-based; settings: Saccharomyces cerevisiae, Table 2, SD pH 6.8, 48 h, 30 °C
Method: as §1

[9] = tested on: S. cerevisiae strain ARE Y121F T289A (AfCyp51A-6×His Y121F T289A, AfCprA2, AfErg6-FLAG); assay: MIC80 susceptibility, strain Y121F T289A; assay type: cell-based, Saccharomyces cerevisiae; settings: Saccharomyces cerevisiae; Table 2; strain Y121F T289A; SD pH 6.8, 48 h, 30 °C; ± SD; read-out: MIC80
Method: as §1

[10] = tested on: S. cerevisiae strain ARE (AfCyp51A-6×His, AfCprA2, AfErg6-FLAG); assay: MIC80 susceptibility, strain ARE; assay type: cell-based, Saccharomyces cerevisiae; settings: Saccharomyces cerevisiae; Table 2; strain ARE; SD pH 6.8, 48 h, 30 °C; ± SD; read-out: MIC80
Method: as §1

[11] = tested on: S. cerevisiae strain AR (AfCyp51A-6×His, AfCprA2-6×His); assay: MIC80 susceptibility, strain AR; assay type: cell-based, Saccharomyces cerevisiae; settings: Saccharomyces cerevisiae; Table 2; strain AR; SD pH 6.8, 48 h, 30 °C; ± SD; read-out: MIC80
Method: as §1

[12] = tested on: S. cerevisiae strain BR (AfCyp51B-6×His, AfCprA2-6×His); assay: MIC80 susceptibility, strain BR; assay type: cell-based; settings: Saccharomyces cerevisiae; Table 2; strain BR; SD pH 6.8, 48 h, 30 °C; ± SD; read-out: MIC80
Method: as §1

| Structure (SMILES) | MIC80 [1] | MIC80 [2] | λpeak (type II difference spectrum) ([3]; 1 μM enzyme) | λtrough (type II difference spectrum) ([3]; 1 μM enzyme) | ΔAmax (type II binding) ([3]; 1 μM enzyme, Hill equation) | Hill Number ([3]; type II binding) | Kd ([3]; type II binding, 1 μM enzyme, Hill equation) | MIC80 [4] | MIC80 [5] | greater susceptibility (MIC80) of strain T289A compared with strain ARE [6] | MIC80 [6] | MIC80 [7] | MIC80 [8] | MIC80 [9] | MIC80 [10] | MIC80 [11] | MIC80 [12] |
| --- | --- | --- | --- | --- | --- | --- | --- | --- | --- | --- | --- | --- | --- | --- | --- | --- | --- |
| O[C@@](Cn1cnnn1)(c1ccc(F)cc1F)C(F)(F)c1ccc(-c2ccc(OCC(F)(F)F)cc2)cn1 [VT-1161, oteseconazole] | 0.53 ± 0.02 µM | 0.14 ± 0.04 µM | 423 nm | 391 nm | 0.11 | 0.87 | 3.23 ± 2.5 µM | 0.06 ± 0.01 µM | 0.01 µM | 21 fold | 0.02 µM | 0.05 ± 0.01 µM | 0.03 µM | 1.07 ± 0.05 µM | 0.43 ± 0.05 µM | – | – |
| CCCCCOc1ccc(-c2cc(-c3ccc(C(=O)N[C@H]4C[C@@H](O)[C@@H](O)NC(=O)[C@@H]5[C@@H](O)[C@@H](C)CN5C(=O)[C@H]([C@H](O)CC(N)=O)NC(=O)[C@H]([C@H](O)[C@@H](O)c5ccc(O)c(OS(=O)(=O)O)c5)NC(=O)[C@@H]5C[C@@H](O)CN5C(=O)[C@H]([C@@H](C)O)NC4=O)cc3)no2)cc1 [MCF, Micafungin] (X1-[Orn(4R-OH,5R-OH)]T[Hyp][hTyr(3S-OH,4S-OH,3'-OSO3H)][Gln(3R-OH)][Pro(3S-OH,4S-Me)]; lactam 1-C) | 0.24 ± 0.02 µM | 0.28 ± 0.01 µM | – | – | – | – | – | 0.14 ± 0.01 µM | 0.22 ± 0.02 µM | – | 0.27 µM | 0.18 ± 0.02 µM | 0.19 ± 0.03 µM | 0.21 ± 0.01 µM | – | 0.17 ± 0.03 µM | 0.17 ± 0.03 µM |
